Source: publication PMC6309379 (Journal of medicinal chemistry, 2018)

Legend:
[1] = test system: MOLM13 cells; assay: Cell cycle study, propidium iodide staining; type: cell-based, human; settings: MOLM13, 1 μM, 24 h
[2] = molecular target: BRD4-BD1 (Homo sapiens, UniProt O60885); assay: BROMOscan; type: binding; settings: 1 uM, control DMSO
[3] = test system: PLK kinases (PLK1–3); assay: KINOMEscan; type: binding; settings: 1 uM, control DMSO

SMILES | cell cycle arrest [1] | BRD4-BD1 % of control [2] | PLK kinases % of control [3]
CC[C@@H]1C(=O)N(C)c2cnc(Nc3ccc(C(=O)NC4CCN(C)CC4)cc3OC)nc2N1C1CCCC1 [BI-2536, reference compound] | G1/G2 arrest |  | 
COc1cc(C(=O)NC2CCN(C)CC2)ccc1Nc1ncc2c(n1)N(C1CCCC1)[C@H](C)C(=O)N2C [Compound 5, (R)-4-((8-cyclopentyl-5,7-dimethyl-6-oxo-5,6,7,8-tetrahydropteridin-2-yl)amino)-3-methoxy-N-(1-methylpiperidin-4-yl)benzamide] |  | 12 % of control | 0.3–0.5 % of control
C[C@@H]1C(=O)N(C)c2cnc(Nc3ccc(C(=O)NC4CCN(C)CC4)cc3OC3CCCC3)nc2N1C1CCCC1 [Compound 23, (R)-4-((8-cyclopentyl-5,7-dimethyl-6-oxo-5,6,7,8-tetrahydropteridin-2-yl)amino)-3-(cyclopentyloxy)-N-(1-methylpiperidin-4-yl)benzamide] | cell cycle arrest in the G1/G2 stage of the cell cycle |  | 
